US11744830B2, “Ameliorative agent for cytokine release syndrome and so on” (TORII PHARMACEUTICAL CO., LTD., priority 2018, dated 2023)

How the values were obtained:
Assay type in all cases: cell-based, human
[1] = tested on: OPN production from CD14^+ cells; experiment: LPS stimulation-induced OPN production in CD14^+ cells; details: LPS
Experimental: (§1) Cryopreserved PBMCs were quickly thawed in a 37° C. thermostat and added to a tube containing medium. After centrifugation (at room temperature at 300 g for 10 minutes) to remove the supernatant, the cells were suspended again in the medium, followed by counting the number of viable cells. The cell suspension was centrifuged (at room temperature at 300 g for 10 minutes) to remove the supernatant, followed by addition of MACS Buffer to suspend the cells, to which Human CD14 MicroBeads were further added. After being allowed to stand on ice for 15 minutes, the cell suspension was diluted with MACS Buffer and centrifuged (at room temperature at 300 g for 10 minutes) to remove the supernatant. MACS Buffer was added to the tube, and the cells were suspended and then applied to a separatory column to separate CD14^+ cells. The CD14^+ cell fraction was diluted with the medium and then centrifuged (at room temperature at 300 g for 10 minutes). The supernatant was removed and the cells were suspended in the medium (1 mL), followed by counting the number of viable cells. The cell suspension was adjusted with the medium to 2.4×10^5 or 3×10^5 cells/mL and seeded in a 96-well plate (2.4×10^4 cells/well), which was then allowed to stand in a CO2 incubator for 1 to 2 hours.
The collected culture supernatants were quantified for OPN using Human OPN DuoSet ELISA.

[2] = tested on: IL-1β production in CD14^+ cells; experiment: LPS stimulation-induced IL-1β production in CD14^+ cells; details: LPS
Experimental: as §1
The culture supernatants collected in 1.2.10 were quantified for IL-1β using Human IL-1β DuoSet ELISA.

[3] = tested on: IL-18 production from LPS-pretreated CD14^+ cells; experiment: ATP stimulation-induced IL-18 production from LPS-pretreated CD14^+ cells; details: LPS-pretreated CD14^+ cells, ATP
Experimental: Cryopreserved PBMCs were quickly thawed in a 37° C. thermostat and added to a tube containing medium. After centrifugation (at room temperature at 300 g for 10 minutes) to remove the supernatant, the cells were suspended again in the medium, followed by counting the number of viable cells. The cell suspension was centrifuged (at room temperature at 300 g for 10 minutes) to remove the supernatant, followed by addition of MACS Buffer to suspend the cells, to which Human CD14 MicroBeads were further added. After being allowed to stand on ice for 15 minutes, the cell suspension was diluted with MACS Buffer and centrifuged (at room temperature at 300 g for 10 minutes) to remove the supernatant.
MACS Buffer was added to the tube, and the cells were suspended and then applied to a separatory column to separate CD14^+ cells. The CD14^+ cell fraction was diluted with the medium and then centrifuged (at room temperature at 300 g for 10 minutes). The supernatant was removed and the cells were suspended in the medium (1 mL), followed by counting the number of viable cells. The cell suspension adjusted with the medium to 2×10^6 cells/mL was seeded in a 96-well plate (1×10^5 cells/well) and allowed to stand in a CO2 incubator for 1 to 2 hours. […] The cells were then stimulated with LPS (final concentration: 500 ng/mL) for 6 hours at 37° C. and an ATP solution (final concentration: 5 mM) was added thereto, and the 96-well plate was further allowed to stand in a CO2 incubator for 2 hours to collect the culture supernatants.
The collected culture supernatants were quantified for IL-18 using Human IL-18 DuoSet ELISA.

[4] = tested on: VEGF production from macrophages; experiment: LPS stimulation-induced VEGF production in macrophages; details: Macrophages, LPS
Experimental: CD14^+ cells were cultured in 20 ng/mL M-CSF-containing RPMI medium at 37° C. for 5 days to induce differentiation into macrophages (during which the medium was replaced once every two days with fresh 20 ng/mL M-CSF-containing RPMI medium). […] The macrophages were then stimulated with LPS (final concentration: 100 ng/mL) or RPMI medium alone at 37° C. for 3 days, followed by collecting the culture supernatants. The collected culture supernatants were quantified for VEGF using Human VEGF DuoSet ELISA.

MCP-1 production = experiment: CRS toxicity evaluation system using CAR-T cells: MCP-1; details: CRS toxicity evaluation system using CAR-T cells
Experimental: (§2) The supernatants were collected at 72 hours after the initiation of culture, and various cytokines in each supernatant were measured by FACS multiplex assay.

IL-8 production = experiment: CRS toxicity evaluation system using CAR-T cells: IL-8; details: CRS toxicity evaluation system using CAR-T cells
Experimental: as §2

TNF-α production = experiment: CRS toxicity evaluation system using CAR-T cells: TNF-α; details: CRS toxicity evaluation system using CAR-T cells
Experimental: as §2

IL-1β production = experiment: CRS toxicity evaluation system using CAR-T cells: IL-1β; details: CRS toxicity evaluation system using CAR-T cells
Experimental: as §2

Tocilizumab: interleukin (IL)-6R antibody (tocilizumab) approved at the same time as CAR-T cell therapy
no suppressive effect: suppressive effect on OPN production [1] | suppressive effect on IL-1β production [2] | suppressive effect on IL-18 production [3] | effect on VEGF production from macrophages [4] | suppressive effect on MCP-1 production (MCP-1 production) | suppressive effect on IL-8 production (IL-8 production) | suppressive effect on TNF-α (TNF-α production) | suppressive effect on IL-1β (IL-1β production)
